Patent publication US11780826B2 (Amgen Inc., priority 2017, dated 2023)

System: Bovine cardiac myofibrils
Test: In vitro model of dose-dependent myofibril ATPase modulation (AC1.4, pyruvate kinase/lactate dehydrogenase-coupled ATPase assay at pCa25)
Type: biochemical
Conditions: concentration at which ATPase activity was 1.4-fold higher than the bottom of the dose curve, mean of a minimum of two independent tests
Method in brief: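 ATP turnover tracked as NADH absorbance loss at 340 nm, coupled via pyruvate kinase/lactate dehydrogenase, with 1 mM ATP, 2 mM MgCl2 and 12 mM K-PIPES at pH 6.80 (22° C) under EGTA/CaCl2 calcium buffering. Substrate was detergent-treated bovine cardiac myofibrils; 4-parameter curve fit, AC1.4 averaged over at least two runs.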

Row | SMILES | AC1.4
1 | N#CC1CN(S(=O)(=O)N2CCC[C@H](C(=O)N3CCC[C@@H]3C(=O)NCc3ccc(F)c(Cl)c3)C2)C1 [Example 272, N-(3-chloro-4-fluorobenzyl)-1-(((3S)-1-((3-cyano-1-azetidinyl)sulfonyl)-3-piperidinyl)carbonyl)-D-prolinamide] | 0.6904 µM
2 | CS(=O)(=O)c1cccc(C(=O)N2C[C@@H](F)C[C@@H]2C(=O)N[C@@H](c2ccc(C(F)(F)F)c(F)c2)C2COC2)c1 [Example 273, (4S)-4-fluoro-N-((R)-(3-fluoro-4-(trifluoromethyl)phenyl)(3-oxetanyl)methyl)-1-(3-(methylsulfonyl)benzoyl)-D-prolinamide] | 0.6841 µM
3 | O=C(NCc1ccc(C(F)(F)F)cc1)[C@H]1CCCN1C(=O)[C@H]1CCCN(S(=O)(=O)N2CC(C(F)F)C2)C1 [Example 274, 1-(((3S)-1-((3-(difluoromethyl)-1-azetidinyl)sulfonyl)-3-piperidinyl)carbonyl)-N-(4-(trifluoromethyl)benzyl)-D-prolinamide] | 0.6977 µM
4 | CCS(=O)(=O)c1cccc(C(=O)N2[C@@H](C(=O)N[C@@H](c3ccc(C(F)(F)F)cc3)C3COC3)C[C@H]3C[C@H]32)c1 [Example 275, (1R,3R,5R)-2-(3-(ethylsulfonyl)benzoyl)-N-((R)-3-oxetanyl(4-(trifluoromethyl)phenyl)methyl)-2-azabicyclo[3.1.0]hexane-3-carboxamide] | 0.6922 µM
5 | N#CC1CN(S(=O)(=O)N2CCC[C@H](C(=O)N3CCC[C@@H]3C(=O)NC3CC(CO)c4ccccc43)C2)C1 (stereo partly drawn) [Example 276, (2R)-1-((S)-1-((3-cyanoazetidin-1-yl)sulfonyl)piperidine-3-carbonyl)-N-(3-(hydroxymethyl)-2,3-dihydro-1H-inden-1-yl)pyrrolidine-2-carboxamide] | 0.7014 µM
6 | CS(=O)(=O)N1CCC[C@H](C(=O)N2[C@@H](C(=O)N[C@@H](c3cc(F)c(Cl)cc3F)C3CC3)C[C@H]3C[C@H]32)C1 [Example 277, (1R,3R,5R)-N-((R)-(4-chloro-2,5-difluorophenyl)(cyclopropyl)methyl)-2-(((3S)-1-(methylsulfonyl)-3-piperidinyl)carbonyl)-2-azabicyclo[3.1.0]hexane-3-carboxamide] | 0.7027 µM
7 | CS(=O)(=O)c1cccc(C(=O)N2[C@@H](C(=O)N[C@@H](c3cc(F)c(Cl)c(F)c3)C3CC3)C[C@H]3C[C@H]32)c1 [Example 278, (1R,3R,5R)-N-((R)-(4-chloro-3,5-difluorophenyl)(cyclopropyl)methyl)-2-(3-(methylsulfonyl)benzoyl)-2-azabicyclo[3.1.0]hexane-3-carboxamide] | 0.7012 µM
8 | NS(=O)(=O)c1cccc(C(=O)N2C[C@@H](F)C[C@@H]2C(=O)N[C@@H](c2cc(F)c(Cl)cc2F)C2CC2)c1 [Example 280, (4S)-N-((R)-(4-chloro-2,5-difluorophenyl)(cyclopropyl)methyl)-4-fluoro-1-(3-sulfamoylbenzoyl)-D-prolinamide] | 0.713 µM
9 | O=C(N[C@@H](c1ccc(C(F)(F)F)cc1F)C1CC1)[C@H]1CCCN1C(=O)c1cccc(S(=O)(=O)CC(F)(F)F)c1 [Example 281, N-((R)-cyclopropyl(2-fluoro-4-(trifluoromethyl)phenyl)methyl)-1-(3-((2,2,2-trifluoroethyl)sulfonyl)benzoyl)-D-prolinamide] | 0.7104 µM
10 | O=C(N[C@@H](c1cc(F)c(Cl)cc1F)C1COC1)[C@H]1C[C@H]2C[C@H]2N1C(=O)c1cncc(C(F)(F)F)c1 [Example 282, (1R,3R,5R)-N-((R)-(4-chloro-2,5-difluorophenyl)(3-oxetanyl)methyl)-2-((5-(trifluoromethyl)-3-pyridinyl)carbonyl)-2-azabicyclo[3.1.0]hexane-3-carboxamide] | 0.7195 µM
11 | N#CC1CN(S(=O)(=O)c2cccc(C(=O)N3CCC[C@@H]3C(=O)NCc3ccc(C4CC4)cc3)c2)C1 [Example 283, 1-((3-((3-cyano-1-azetidinyl)sulfonyl)phenyl)carbonyl)-N-(4-cyclopropylbenzyl)-D-prolinamide] | 0.7288 µM
12 | N#CC1CN(S(=O)(=O)N2CCC[C@H](C(=O)N3CCC[C@@H]3C(=O)NCc3ccc(F)cc3Cl)C2)C1 [Example 284, N-(2-chloro-4-fluorobenzyl)-1-(((3S)-1-((3-cyano-1-azetidinyl)sulfonyl)-3-piperidinyl)carbonyl)-D-prolinamide] | 0.7331 µM
13 | Cc1ccc([C@@H](C)NC(=O)[C@H]2CCCN2C(=O)[C@H]2CCCN(S(=O)(=O)N3CC(C#N)C3)C2)cc1 [Example 285, 1-(((3S)-1-((3-cyano-1-azetidinyl)sulfonyl)-3-piperidinyl)carbonyl)-N-((1R)-1-(4-methylphenyl)ethyl)-D-prolinamide] | 0.7351 µM
14 | CS(=O)(=O)N1CC(F)(c2cccc(C(=O)N3CCC[C@@H]3C(=O)N[C@@H](c3ccc(C(F)(F)F)cc3F)C3CC3)c2)C1 [Example 286, N-((R)-cyclopropyl(2-fluoro-4-(trifluoromethyl)phenyl)methyl)-1-(3-(3-fluoro-1-(methylsulfonyl)-3-azetidinyl)benzoyl)-D-prolinamide] | 0.7437 µM
15 | Cc1c(F)cccc1CNC(=O)[C@H]1CCCN1C(=O)[C@H]1CCCN(S(=O)(=O)N2CC(C#N)C2)C1 [Example 288] | 0.7452 µM
16 | O=C(N[C@@H](c1cc(F)c(C(F)(F)F)cc1F)C1CC1)[C@H]1C[C@H]2C[C@H]2N1C(=O)c1cc(C(F)(F)F)ccn1 [Example 289, (1R,3R,5R)-N-((R)-cyclopropyl(2,5-difluoro-4-(trifluoromethyl)phenyl)methyl)-2-((4-(trifluoromethyl)-2-pyridinyl)carbonyl)-2-azabicyclo[3.1.0]hexane-3-carboxamide] | 0.7506 µM

Results, then the compound that gave them:

Row | AC1.4 | SMILES
17 | 0.7542 µM | N#CC1CN(S(=O)(=O)N2CCN[C@H](C(=O)N3CCC[C@@H]3C(=O)NCc3ccc(Cl)cc3F)C2)C1 [Example 290, N-(4-chloro-2-fluorobenzyl)-1-(((2S)-4-((3-cyano-1-azetidinyl)sulfonyl)-2-piperazinyl)carbonyl)-D-prolinamide]
18 | 0.756 µM | C[C@@H](NC(=O)[C@H]1CCCN1C(=O)[C@@H]1CN(S(=O)(=O)N2CC(C#N)C2)CCO1)c1ccc(Cl)cc1 [Example 291, N-((1R)-1-(4-chlorophenyl)ethyl)-1-(((2S)-4-((3-cyano-1-azetidinyl)sulfonyl)-2-morpholinyl)carbonyl)-D-prolinamide]
19 | 0.7577 µM | CS(=O)(=O)c1cncc(C(=O)N2CCCC[C@@H]2C(=O)N[C@@H](c2cc(F)c(Cl)cc2F)C2CC2)c1 [Example 292, (2R)-N-((R)-(4-chloro-2,5-difluorophenyl)(cyclopropyl)methyl)-1-((5-(methylsulfonyl)-3-pyridinyl)carbonyl)-2-piperidinecarboxamide]
20 | 0.7603 µM | CC[C@H](NC(=O)[C@H]1CCCN1C(=O)[C@H]1CCCN(S(=O)(=O)N2CC(C#N)C2)C1)c1ccc(C(F)(F)F)cc1F [Example 293, 1-(((3S)-1-((3-cyano-1-azetidinyl)sulfonyl)-3-piperidinyl)carbonyl)-N-((1S)-1-(2-fluoro-4-(trifluoromethyl)phenyl)propyl)-D-prolinamide]
21 | 0.7671 µM | O=C(N[C@@H](c1cc(F)c(Cl)cc1F)C1CC1)[C@H]1C[C@H]2C[C@H]2N1C(=O)c1ccnc(S(=O)(=O)C2CC2)c1 [Example 295, (1R,3R,5R)-N-((R)-(4-chloro-2,5-difluorophenyl)(cyclopropyl)methyl)-2-((2-(cyclopropylsulfonyl)-4-pyridinyl)carbonyl)-2-azabicyclo[3.1.0]hexane-3-carboxamide]
22 | 0.7679 µM | O=C(NCc1ccc(C(F)(F)F)cc1F)[C@H]1CCCN1C(=O)[C@H]1CCCN(S(=O)(=O)N2CC(O)(C(F)F)C2)C1 [Example 296, 1-(((3S)-1-((3-(difluoromethyl)-3-hydroxy-1-azetidinyl)sulfonyl)-3-piperidinyl)carbonyl)-N-(2-fluoro-4-(trifluoromethyl)benzyl)-D-prolinamide]
23 | 0.7685 µM | N#CC1CN(S(=O)(=O)N2CCC[C@H](C(=O)N3CCC[C@@H]3C(=O)NCc3ccc(F)c(C(F)(F)F)c3)C2)C1 [Example 297, 1-(((3S)-1-((3-cyano-1-azetidinyl)sulfonyl)-3-piperidinyl)carbonyl)-N-(4-fluoro-3-(trifluoromethyl)benzyl)-D-prolinamide]
24 | 0.7905 µM | CC(NC(=O)[C@@H](C)N(C)C(=O)c1cccc(S(=O)(=O)N2CC(C#N)C2)c1)c1ccc(Cl)cc1 (stereo partly drawn) [Example 298, N-((2R)-1-((1-(4-chlorophenyl)ethyl)amino)-1-oxopropan-2-yl)-3-((3-cyanoazetidin-1-yl)sulfonyl)-N-methylbenzamide]
25 | 0.7923 µM | C[C@H](C(=O)N[C@H](C)c1ccc(C(F)(F)F)cc1F)N(C)C(=O)[C@@H]1CN(S(=O)(=O)N2CC(C#N)C2)CCO1 [Example 299, (2S)-4-((3-cyano-1-azetidinyl)sulfonyl)-N-((2R)-1-(((1R)-1-(2-fluoro-4-(trifluoromethyl)phenyl)ethyl)amino)-1-oxo-2-propanyl)-N-methyl-2-morpholinecarboxamide]
26 | 0.7928 µM | CS(=O)(=O)c1cccc(C(=O)N2CCCC[C@@H]2C(=O)N[C@@H](c2ccc(C(F)(F)F)c(F)c2)C2CC2)c1 [Example 300, (2R)-N-((R)-cyclopropyl(3-fluoro-4-(trifluoromethyl)phenyl)methyl)-1-(3-(methylsulfonyl)benzoyl)-2-piperidinecarboxamide]
27 | 0.7944 µM | O=C(NCc1ccc(C(F)(F)F)cc1)[C@H]1CCCN1C(=O)[C@H]1CCCN(S(=O)(=O)N2CCC2c2ccccc2F)C1 (stereo partly drawn) [Example 302, (2R)-1-((3S)-1-((2-(2-fluorophenyl)azetidin-1-yl)sulfonyl)piperidine-3-carbonyl)-N-(4-(trifluoromethyl)benzyl)pyrrolidine-2-carboxamide]
